Results taken from US20210214368A1, “COMPOUNDS FOR THIOL-TRIGGERED COS AND/OR H2S RELEASE AND METHODS OF MAKING AND USING THE SAME” (University of Oregon, priority 2018, published 2021).
Each block holds one compound with its values, some of them ahead of it.

What was measured:
HeLa cells [1] = experiment: Cytotoxicity in HeLa cells (CCK-8); assay type: cell-based; conditions: 6.25-50.0 μM, 30 minutes
Description: In this example, H2S delivery from compound 202a in HeLa cells was evaluated. To determine whether compound embodiments of the present disclosure can be activated to release COS/H2S in cellular environment, HeLa cells were treated with compound 202a under different conditions. HeLa cells were treated with compound 202a (50 μM) or compound 204 (50 μM) and H2S release was monitored using C7-Az, a H2S-responsive fluorescent probe. […] To confirm that compound 202a was not cytotoxic, confluent HeLa cells were incubated in FBS-free DMEM containing vehicle (0.5% DMSO), and compound 202a (6.25-50.0 μM) for 30 minutes in a 96-well plate. The culture media were then removed and 100 μL of FBS-free DMEM containing 10% CCK-8 solution was added to each well, and cells were incubated for 2 hours at 37° C. The absorbance at 450 nm was measured by using a microplate reader (see FIG. 8). The cell viability was measured and normalized to the vehicle group. The results are expressed as mean t SEM (n=6).

[2] = tested on: porcine liver esterase (PLE); experiment: Esterase stability of the sulfenyl thiocarbonate group (fluorescence); assay type: in vitro ADME; conditions: compound 10 μM, PLE 1 U/mL, 2-hour incubation
Description: Compound 202a also (10 μM) was incubated with RSONs (100 μM), such as H2O2, ClO^−, O2^−, TBHP, Ser, Lys, Gly, GSSG, and GSNO, and COS/H2S release was monitored by tracking the fluorescein formation. […] Because the carbonate functional group may be sensitive to esterase-catalyzed hydrolysis, the esterase stability of the sulfenyl thiocarbonate group also was evaluated by incubating compound 202a (10 μM) with porcine liver esterase (PLE, 1 U/mL).

[3] = Selectivity of fluorescence turn on to cellular RSONs and thiols; conditions: 10 μM, PBS at physiological pH, 2 hours
Description: Representative Procedure for Evaluating Selectivity of Compound EmbodIments to Cellular RSONs—To 3.00 mL of PBS was added a stock solution of compound 202a (3.00 μL, 10.0 mM in DMSO), followed by the addition of RSON stock solution (30.0 μL, 10.0 mM in H2O). After 2 hours of incubation at room temperature, the solution was excited at 490 nm and the fluorescence intensity (500-650 nm) was measured and recorded by using a Quanta Master 40 spectrofluorometer. For the NEM-pretreated group, NEM (30.0 μL, 1.00 M) was added to PBS (3.00 mL) containing CA (25.0 μg/mL) and Cys (100 μM). The solution was then incubated for 1 hour before adding the compound 202a stock solution (3.00 μL, 10.0 mM in DMSO).
In this example, fluorescence turn on of compound 202a (10 μM) in the presence of cellular reactive sulfur, oxygen, and nitrogen species (RSONs) (100 μM) was evaluated. […] Compound 202a (10 μM) was incubated with GSH, homocysteine (Hcy), N-acetyl cysteine (NAC), penicillamine (PEN), or bovine serum albumin (BSA) (100 μM), in PBS buffer (pH 7.4, 10 mM) containing CA (25 μg/mL) and the fluorescent intensity was measured after 2 hours. […]
Compound 202a also (10 μM) was incubated with RSONs (100 μM), such as H2O2, ClO^−, O2^−, TBHP, Ser, Lys, Gly, GSSG, and GSNO, and COS/H2S release was monitored by tracking the fluorescein formation. […]

[4] = Cys-triggered fluorescence turn on in PBS; conditions: for fluorescence response to Cys: compound 10 μM, Cys 100 μM, PBS pH 7.4
Description: Representative Measurement of Fluorescence Intensity of Compound Embodiments—A freshly prepared compound 202a stock solution (3.00 μL, 10.0 mM in DMSO) was added to 3.00 mL of PBS (Ph 7.40, 10.0 Mm) containing CA (25.0 μg/mL) in a quartz fluorescence cuvette. A Cys stock solution (10.0 mM) was then added to reach the desired working concentration. The reaction solution was excited at 490 nm and the fluorescence intensity (500-650 nm) was measured and recorded using a Quanta Master 40 spectrofluorometer.
In this example, it was determined that Cys-induced compound 202a activation can be monitored by tracking the fluorescein formation and accompanied fluorescence response, and, in some embodiments, the reaction proceeds more quickly when higher concentrations of thiols are added. Time-dependent fluorescence spectra (FIG. 2A) and UV-vis spectra (FIG. 2B) of a particular compound embodiment, compound 202a, (10 μM) in PBS buffer (pH 7.4, 10 mM) containing Cys (100 μM) and CA (25 μg/mL) were obtained using a fluorescence spectrometer. […] Fluorescein formation was also confirmed by UV-vis spectroscopy under the identical conditions (FIG. 2B). Specifically, a freshly prepared compound 202a stock solution (3.00 μL, 10.0 mM in DMSO) was added to 3.00 mL of PBS (pH 7.40, 10.0 mM) containing CA (25.0 μg/mL) in a quartz UV cuvette. A Cys stock solution (30.0 μL, 10.0 mM in H2O) was then added. The absorbance (350-600 nm) was measured for 3 hours using a Cary 100 spectrometer. A Cys-dependent fluorescence enhancement was observed when treating compound 202a (10 μM) with increasing concentrations of Cys (1-20 equiv.), indicating a high sensitivity of compound 202a towards Cys. […] In addition, to confirm the H2S delivery from compound 202a, compound 202a (10 μM) was treated with Cys (100 μM) in PBS containing CA (25 μg/mL) and quantified H2S release using the MB assay. […] Optical measurement conditions were as follows: […], and slit width=0.3 mm.

RAW 264.7 cells [5] = experiment: Cytotoxicity in RAW 264.7 cells (CCK-8); assay type: cell-based; conditions: concentrations up to 25 μM, 2 hours
Description: In this example, cytoprotective activity of compound 202a against LPS-induced inflammation was evaluated. […] The compounds of the present disclosure were therefore evaluated to determine their anti-inflammatory activities due to H2S release. RAW 264.7 cells were incubated with compound 202a (0-25 μM) for 2 hours, followed by a 24-hour incubation with lipopolysaccharide (LPS, 0.5 μg/mL) to trigger the inflammatory response. The inflammation event usually results in the NO generation, which can be monitored by measuring nitrite (NO2—) accumulation. […] In particular, confluent RAW 264.7 cells were incubated in FBS-free DMEM containing vehicle (0.5% DMSO), compound 202a, BnSH, and compound 204 (10.0-100 μM) for 2 hours in a 96-well plate. The culture media were then removed and 100 μL of FBS-free DMEM containing 10% CCK-8 solution was added to each well, and cells were incubated for 2 hours at 37° C. The absorbance at 450 nm was measured by using a microplate reader (FIG. 9). The cell viability was measured and normalized to the vehicle group. The results are expressed as mean t SEM (n=6).

HeLa cells [6] = experiment: Cellular imaging of H2S delivery in HeLa cells with C7-Az probe; assay type: cell-based; conditions: compound 50 μM, C7-Az 50 μM, 30 minutes
Description: HeLa cells were then plated in poly-D-lysine coated plates (MatTek) containing 2.00 mL of DMEM and incubated at 37° C. under 5% CO2 for 24 hours. The confluent cells were washed with PBS and then co-incubated with NucRed nuclear dye (2 drops), C7-Az (50.0 μM), and compound 202a (50.0 μM) for 30 minutes. Prior to imaging, the cells were washed with PBS and bathed in 2.00 mL of PBS. Cell imaging was performed on a Leica DMi8 fluorescent microscope. […] To confirm that compound 202a was not cytotoxic, confluent HeLa cells were incubated in FBS-free DMEM containing vehicle (0.5% DMSO), and compound 202a (6.25-50.0 μM) for 30 minutes in a 96-well plate. The culture media were then removed and 100 μL of FBS-free DMEM containing 10% CCK-8 solution was added to each well, and cells were incubated for 2 hours at 37° C. The absorbance at 450 nm was measured by using a microplate reader (see FIG. 8). The cell viability was measured and normalized to the vehicle group. The results are expressed as mean t SEM (n=6).

RAW 264.7 cells [7] = experiment: Anti-inflammatory activity: LPS-induced NO2- accumulation (Griess); assay type: cell-based; conditions: pretreatment 25 μM for 2 hours, then LPS 0.500 μg/mL 24 hours
Description: Representative Procedure for Determining Anti-Inflammatory Activities of Compound Embodiments and Control Compounds—Macrophage RAW 264.7 cells were seeded in a 24-well plate (5×10^5 cells/well) containing 0.500 mL of DMEM and incubated at 37° C. under 5% CO2 for 24 hours. The confluent cells were washed with PBS and incubated with either compound 202a (0-25.0 μM), or GYY4137 (25.0 μM) at 37° C. for 2 hours. Compounds were then removed by washing cells with PBS and these pretreated cells were incubated in FBS-free DMEM containing LPS (0.500 μg/mL) for 24 hours. NO2— levels were measured by using a Griess Reagent Kit.

[8] = Spectroscopic properties in PBS buffer (pH 7.4, 10 mM); assay type: physicochemical; conditions: PBS (pH 7.4, 10 mM)
Description: In this example, the spectroscopic properties in PBS buffer (pH 7.4, 10 mM) of compounds 202a-202d, and control compound 204. Compounds 202a-202c and control compound 204 were not absorptive in the visible region and are all these compounds were not fluorescent because the fluorescein unit is locked in the closed lactone form.

RAW 264.7 cells [9] = conditions: 100-1000 μM and 24-hour incubation; cited from earlier work
[10] = Thiol-triggered H2S release in PBS containing CA (MB assay); conditions: for GSH-triggered H2S release: PBS containing GSH and CA
Description: To evaluate thiol effects on COS/H2S release from cyclic perthiocarbamate compound embodiments, compound 306a (50 μM) was incubated in PBS (pH 7.4, 10 mM) containing Cys or GSH (up to 4.0 mM) and CA (25 μg/mL) and H2S release was monitored by MB assay. […] Additionally, other thiol triggers, such as cysteine, homocysteine, and N-acetyl cysteine, were combined with compound 306a to evaluate if they would trigger the compound to release H2S.
In this example, GSH-triggered H2S release from compound 900 was evaluated. […] To improve the H2S releasing capacity of ATB-346, compound 900 was made by reacting ATB-346 with chlorocarbonyl sulfenyl chloride reagent (see Scheme 9). The resultant compound 900 was then added to PBS containing GSH and CA.
Release of H2S from compound 404c (25 μM) in the presence of L-cysteine or reduced glutathione (GSH) (500 μM, 20 equiv.) measured by the spectrophotometric methylene blue assay, with results shown in FIG. 17.
In this example, additional compounds, such as cyclic sulfenyl thiocarbamate compounds 306a-306e, were evaluated for their ability to release H2S upon exposure to a biological thiol, cysteine.
With the hybrid NSAID in hand, COS/H2S release in aqueous buffer was evaluated.

fluorescence with porcine liver esterase [2]: slight fluorescence turn on | stability in PBS in the absence of thiols [3]: stable | fluorescent signal in the absence of Cys (stability in aqueous buffer) ([4]; compound 10 μM in PBS, no Cys): No fluorescent signal was observed
Structure (SMILES): O=C(Oc1ccc2c(c1)Oc1cc(OC(=O)SSCc3ccccc3)ccc1C21OC(=O)c2ccccc21)SSCc1ccccc1 [Compound 202a]
cytotoxicity in HeLa cells (HeLa cells [1]): not cytotoxic | cytotoxicity in RAW 264.7 cells (RAW 264.7 cells [5]): did not induce cytotoxicity

Structure (SMILES): O=C(Oc1ccc2c(c1)Oc1cc(OC(=O)SCc3ccccc3)ccc1C21OC(=O)c2ccccc21)SCc1ccccc1 [Compound 204]
C7-Az (H2S probe) fluorescence in HeLa cells (HeLa cells [6]): failed to turn on the fluorescence | fluorescence response to Cys [4]: No fluorescence response | anti-inflammatory activity at 25 μM (NO2− production) (RAW 264.7 cells [7]): none of these species exhibited anti-inflammatory activities

Φ [8]: 0.11 ± 0.01 | ε [8]: 27,300 ± 2500 M^−1cm^−1 | λem [8]: 514 nm | λmax [8]: 449 nm
Structure (SMILES): O=C(Oc1ccc2c(c1)Oc1cc(O)ccc1C21OC(=O)c2ccccc21)SSCc1ccccc1 (centres unmarked) [Compound 202d]
fluorescence response to Cys [4]: minimal fluorescence enhancement

Structure (SMILES): C1COCCN1.COc1ccc(P(=S)(S)N2CCOCC2)cc1 (centres unmarked) [GYY4137]
anti-inflammatory effects at higher concentration and longer incubation (RAW 264.7 cells [9]): anti-inflammatory effects | anti-inflammatory activity at 25 μM (NO2− production) (RAW 264.7 cells [7]): such cytoprotection was not observed

Structure (SMILES): COc1ccc2cc(C(C)C(=O)Oc3ccc(-c4nc(=O)ss4)cc3)ccc2c1 (centres unmarked) [Compound 900]
GSH-triggered H2S release [10]: promising H2S release was observed | thiol-triggered H2S release in buffer with CTAB ([10]; compound 50 μM, PBS pH 7.4, CTAB 1.0 mM, CA 25 μg/mL, Cys or GSH 1.0 mM): thiol-triggered H2S release was immediately observed

Structure (SMILES): COc1ccc2cc(C(C)C(=O)Oc3ccc(C(N)=S)cc3)ccc2c1 (centres unmarked) [ATB-346, reference compound]
GSH-triggered H2S release [10]: not detected

Structure (SMILES): SCc1ccccc1 [benzyl mercaptan]
anti-inflammatory activity at 25 μM (NO2− production) (RAW 264.7 cells [7]): none of these species exhibited anti-inflammatory activities

Structure (SMILES): O=c1ssc(=O)n1-c1ccc(Cl)cc1 [Compound 404c]
COS released on reaction with thiols ([10]; compound 25 μM, L-cysteine or GSH 500 μM (20 equiv.), CA, MB assay): two equivalents of COS
